Data on 29 compounds can be found in ChEMBL document CHEMBL1201862, “PubChem BioAssay data set” (2004).

Calls of active or inactive are those of the source. Bounds are passed on as bounds.

Experiment [1] has as its system BJ. The experiment is described as follows: cytotoxicity toward BJ-TERT-LT-ST fibroblasts, dose response, cell-based, RAS-independent, luminescence (AID 1935).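 Further: BJ fibroblasts immortalized with TERT plus LT and ST oncogenes.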 The class given is functional. Conditions: Homo sapiens.
Experiment [2] concerns BJ. Nature of the experiment: cytotoxicity toward BJ-TERT fibroblasts, dose response, cell-based, RAS-independent, luminescence (AID 1933). The format is functional. Conditions: Homo sapiens.
A short description of experiment [3]: cytotoxicity toward DRD oncogenic fibroblasts, dose response, cell-based, non-viral oncogenic, luminescence (AID 1934). Conditions: Homo sapiens. The class given is functional.
For experiment [4], the system named is BJ. Nature of the experiment: cells. The class given is functional, cell-based. Conditions: Homo sapiens.
Experiment [5] has as its target T1, Zinc finger protein mex-5 (Caenorhabditis elegans, UniProt Q9XUB2).
T1 sequence (Q9XUB2 whole entry): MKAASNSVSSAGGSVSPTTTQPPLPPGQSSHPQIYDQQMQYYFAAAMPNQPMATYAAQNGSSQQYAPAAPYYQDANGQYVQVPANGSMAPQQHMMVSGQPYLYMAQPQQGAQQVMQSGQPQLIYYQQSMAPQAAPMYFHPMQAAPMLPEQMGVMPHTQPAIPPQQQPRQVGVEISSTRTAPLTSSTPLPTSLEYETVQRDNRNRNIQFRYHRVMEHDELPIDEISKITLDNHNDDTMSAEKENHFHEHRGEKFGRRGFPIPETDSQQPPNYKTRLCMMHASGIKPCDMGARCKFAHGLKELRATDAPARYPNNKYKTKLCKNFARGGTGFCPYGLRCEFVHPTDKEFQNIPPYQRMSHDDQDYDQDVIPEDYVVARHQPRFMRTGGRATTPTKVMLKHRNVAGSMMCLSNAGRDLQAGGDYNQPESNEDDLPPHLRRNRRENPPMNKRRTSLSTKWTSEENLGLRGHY
Nature of the experiment: MEX-5/TCR-2 RNA interaction inhibitors, dose response, biochemical, C. elegans, fluorescence polarization (AID 1960). On the technique in general: Fluorescence polarisation rises when a labelled molecule tumbles more slowly, as on binding a larger partner.

For experiment [6], the target named is Large T antigen (Simian virus 40, UniProt P03070). The format is functional, Betapolyomavirus macacae.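 Further: Confirmatory-stage PubChem screen for compounds that inhibit SV40 T antigen.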
Experiment [7] concerns the target T2, RNA-binding protein pos-1 (Caenorhabditis elegans, UniProt G5EF15).
T2 sequence (G5EF15 whole entry): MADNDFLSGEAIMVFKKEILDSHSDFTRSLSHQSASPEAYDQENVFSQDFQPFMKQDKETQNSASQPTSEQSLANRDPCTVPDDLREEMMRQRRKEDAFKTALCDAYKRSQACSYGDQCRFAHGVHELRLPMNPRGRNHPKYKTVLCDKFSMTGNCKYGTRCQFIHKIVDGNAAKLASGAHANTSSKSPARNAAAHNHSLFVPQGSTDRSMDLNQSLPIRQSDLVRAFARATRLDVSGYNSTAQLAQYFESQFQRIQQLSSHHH
Nature of the experiment: inhibitors of POS-1/mex-3 RNA binding, dose response, biochemical, fluorescence polarization (AID 1964).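 Further: purified POS-1 fused to maltose binding protein made in E. coli; potency of compounds blocking POS-1 binding to fluorescent RNA.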

For experiment [8], the target named is Cytochrome P450 2D6 (Homo sapiens, UniProt P10635).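 Further: CYP2D6 member of a cytochrome P450 panel assay.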
Experiment [9] concerns the target T3, Calpain-2 catalytic subunit (Sus scrofa, UniProt P43367).
T3 sequence (P43367 whole entry): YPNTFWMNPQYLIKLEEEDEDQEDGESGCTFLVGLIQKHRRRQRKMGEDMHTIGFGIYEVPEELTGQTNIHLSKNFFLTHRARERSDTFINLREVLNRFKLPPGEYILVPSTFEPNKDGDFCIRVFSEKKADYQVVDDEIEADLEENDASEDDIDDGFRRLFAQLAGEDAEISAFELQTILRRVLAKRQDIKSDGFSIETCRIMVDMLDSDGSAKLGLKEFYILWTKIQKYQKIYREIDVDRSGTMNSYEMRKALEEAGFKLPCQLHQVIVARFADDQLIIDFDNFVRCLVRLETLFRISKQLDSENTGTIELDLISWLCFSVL
Nature of the experiment: pig calpain II inhibitor potency, dose response, biochemical, fluorogenic peptide substrate (AID 1420). The format is functional.

Experiment [10] deals with T4, Rac GTPase-activating protein 1 (Homo sapiens, UniProt Q9H0H5).
T4 sequence (Q9H0H5 whole entry): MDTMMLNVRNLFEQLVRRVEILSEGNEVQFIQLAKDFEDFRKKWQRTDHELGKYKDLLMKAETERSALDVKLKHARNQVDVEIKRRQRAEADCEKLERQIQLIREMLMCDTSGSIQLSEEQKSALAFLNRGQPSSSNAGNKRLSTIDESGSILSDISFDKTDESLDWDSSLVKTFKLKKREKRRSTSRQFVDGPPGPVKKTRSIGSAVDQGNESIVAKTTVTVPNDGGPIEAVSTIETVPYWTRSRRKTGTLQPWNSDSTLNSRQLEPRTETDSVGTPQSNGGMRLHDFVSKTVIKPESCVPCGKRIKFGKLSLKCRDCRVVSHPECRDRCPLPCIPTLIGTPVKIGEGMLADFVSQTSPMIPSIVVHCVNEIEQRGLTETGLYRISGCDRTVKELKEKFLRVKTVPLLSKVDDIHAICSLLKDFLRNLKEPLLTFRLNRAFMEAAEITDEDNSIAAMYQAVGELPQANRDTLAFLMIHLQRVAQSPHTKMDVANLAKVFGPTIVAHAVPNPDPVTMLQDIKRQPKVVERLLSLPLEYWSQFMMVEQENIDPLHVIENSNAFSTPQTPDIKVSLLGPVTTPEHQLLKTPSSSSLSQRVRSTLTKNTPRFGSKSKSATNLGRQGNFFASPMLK
The experiment is described as follows: MgcRacGAP GTPase-activating activity inhibitors, confirmation, biochemical, ADP Hunter fluorescence, primary and confirmatory (AID 624330). The format is functional.

Experiment [11] addresses Eukaryotic translation initiation factor 4E (Mus musculus, UniProt P63073). Nature of the experiment: eIF4E–eIF4G protein interaction inhibitors, dose response, biochemical, TR-FRET (AID 855).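 Further: potency for disrupting eIF4E binding to eIF4GI seen as loss of FRET.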 The format is functional.
Experiment [12] addresses Cytochrome P450 2C9 (Homo sapiens, UniProt P11712).
The target of experiment [13] is Cytochrome P450 3A4 (Homo sapiens, UniProt P08684). Conditions: Potency.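 Further: confirmatory qHTS run detecting inhibitors and substrates of CYP3A4.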
Experiment [14] has as its target Cytochrome P450 2C19 (Homo sapiens, UniProt P33261). Nature of the experiment: Cytochrome panel assay with activity outcomes. Panel member name: p450-cyp2c19 Compounds with AC50 equal or less than 10 uM are considered active. The format is functional. Conditions: read-out: AC50.
Experiment [15] concerns the target T5, Corticotropin-releasing factor receptor 2/Corticotropin-releasing factor-binding protein (Homo sapiens, UniProt P24387+Q13324).
T5 sequence (Q13324 whole entry): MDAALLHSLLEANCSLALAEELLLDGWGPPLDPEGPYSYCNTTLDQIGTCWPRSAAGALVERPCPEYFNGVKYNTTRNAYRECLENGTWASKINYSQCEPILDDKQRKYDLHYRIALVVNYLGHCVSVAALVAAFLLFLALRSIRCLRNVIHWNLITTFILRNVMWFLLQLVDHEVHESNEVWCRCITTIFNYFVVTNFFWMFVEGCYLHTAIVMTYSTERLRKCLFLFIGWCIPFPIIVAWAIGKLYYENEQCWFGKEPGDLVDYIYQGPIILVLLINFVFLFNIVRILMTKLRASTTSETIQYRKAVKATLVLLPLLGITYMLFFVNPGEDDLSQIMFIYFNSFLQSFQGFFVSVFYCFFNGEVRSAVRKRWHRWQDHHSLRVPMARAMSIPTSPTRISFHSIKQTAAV
T5 sequence (P24387 whole entry): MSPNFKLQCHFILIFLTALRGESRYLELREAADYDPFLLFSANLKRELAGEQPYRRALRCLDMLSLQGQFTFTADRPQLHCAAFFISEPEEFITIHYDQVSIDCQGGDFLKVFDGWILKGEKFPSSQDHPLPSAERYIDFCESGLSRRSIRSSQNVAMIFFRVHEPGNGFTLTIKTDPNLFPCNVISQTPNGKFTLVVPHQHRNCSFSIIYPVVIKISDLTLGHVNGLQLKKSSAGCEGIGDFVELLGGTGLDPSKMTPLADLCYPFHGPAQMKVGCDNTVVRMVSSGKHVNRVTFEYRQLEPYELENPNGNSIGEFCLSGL
The experiment is described as follows: Dose Response confirmation of uHTS hits for small molecule antagonists of the CRF-binding protein and CRF-R2 receptor complex. The format is functional. Conditions: read-out: IC50_Mean.

Experiment [16] has as its target T5, Corticotropin-releasing factor receptor 2/Corticotropin-releasing factor-binding protein. The experiment is described as follows: activators of CRF receptor 2 with binding protein – uHTS hits, confirmation (AID 602473). The class given is functional. Conditions: read-out: EC50_Mean.
Experiment [17] is described as follows: inhibitors of HIV Env-driven cell fusion, dose response, cherry-pick (AID 652057). The class given is functional, cell-based.
Experiment [18] in a line: inhibitors of clade B AD8 Env fusion, dose response, cell-based, cherry-pick (AID 652062).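 Further: luciferase signal from cell-cell fusion driven by HIV-1 clade B AD8 Env; potency is for inhibitors of fusion seen as a drop in luminescence.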 The format is functional.
Experiment [19] can be described thus: ZM109 Env clade C HIV-1 fusion inhibitors, dose response, HeLa effector, CEM target cells, luciferase, cherry-pick (AID 652058). The format is functional, cell-based.

Cytochrome P450 3A4, sequence (P08684 whole entry): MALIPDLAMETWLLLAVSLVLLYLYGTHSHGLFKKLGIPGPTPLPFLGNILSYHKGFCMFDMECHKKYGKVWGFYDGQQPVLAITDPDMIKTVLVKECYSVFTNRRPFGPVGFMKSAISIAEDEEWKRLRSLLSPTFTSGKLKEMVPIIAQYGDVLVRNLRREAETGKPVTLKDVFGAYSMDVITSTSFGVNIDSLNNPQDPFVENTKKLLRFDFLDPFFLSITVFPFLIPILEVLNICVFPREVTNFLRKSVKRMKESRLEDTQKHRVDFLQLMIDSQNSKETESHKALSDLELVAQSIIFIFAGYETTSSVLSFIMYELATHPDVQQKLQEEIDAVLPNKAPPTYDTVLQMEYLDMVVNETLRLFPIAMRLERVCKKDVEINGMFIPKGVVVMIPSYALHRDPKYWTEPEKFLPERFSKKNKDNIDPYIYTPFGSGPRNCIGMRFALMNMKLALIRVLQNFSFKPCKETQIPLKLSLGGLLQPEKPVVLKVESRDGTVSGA
Cytochrome P450 2D6, sequence (P10635 whole entry): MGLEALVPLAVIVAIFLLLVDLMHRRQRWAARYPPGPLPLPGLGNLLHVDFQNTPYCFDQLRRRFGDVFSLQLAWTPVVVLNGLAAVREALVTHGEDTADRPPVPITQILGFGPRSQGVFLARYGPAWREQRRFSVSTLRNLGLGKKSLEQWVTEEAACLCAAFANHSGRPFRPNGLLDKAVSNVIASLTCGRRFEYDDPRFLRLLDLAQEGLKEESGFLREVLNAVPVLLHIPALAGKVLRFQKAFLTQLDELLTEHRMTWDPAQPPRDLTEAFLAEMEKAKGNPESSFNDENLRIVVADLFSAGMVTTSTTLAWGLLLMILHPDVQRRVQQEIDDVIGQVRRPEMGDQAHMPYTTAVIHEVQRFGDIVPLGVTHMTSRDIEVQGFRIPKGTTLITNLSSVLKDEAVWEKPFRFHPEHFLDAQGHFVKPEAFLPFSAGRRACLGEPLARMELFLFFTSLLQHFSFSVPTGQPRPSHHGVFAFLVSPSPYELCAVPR
Cytochrome P450 2C9, sequence (P11712 whole entry): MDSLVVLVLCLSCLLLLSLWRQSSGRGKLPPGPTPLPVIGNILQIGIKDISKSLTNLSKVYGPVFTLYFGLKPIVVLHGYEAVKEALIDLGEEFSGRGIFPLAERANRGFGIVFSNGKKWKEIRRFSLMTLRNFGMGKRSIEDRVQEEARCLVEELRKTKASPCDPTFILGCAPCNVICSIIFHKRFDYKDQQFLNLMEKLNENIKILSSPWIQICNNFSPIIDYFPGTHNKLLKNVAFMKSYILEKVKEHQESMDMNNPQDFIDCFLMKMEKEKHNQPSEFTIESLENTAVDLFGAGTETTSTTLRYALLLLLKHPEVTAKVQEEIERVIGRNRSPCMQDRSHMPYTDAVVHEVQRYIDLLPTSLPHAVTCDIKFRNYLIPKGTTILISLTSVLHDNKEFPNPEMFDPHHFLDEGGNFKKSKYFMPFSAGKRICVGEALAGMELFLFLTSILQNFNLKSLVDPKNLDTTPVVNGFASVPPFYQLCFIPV
Cytochrome P450 2C19, sequence (P33261 whole entry): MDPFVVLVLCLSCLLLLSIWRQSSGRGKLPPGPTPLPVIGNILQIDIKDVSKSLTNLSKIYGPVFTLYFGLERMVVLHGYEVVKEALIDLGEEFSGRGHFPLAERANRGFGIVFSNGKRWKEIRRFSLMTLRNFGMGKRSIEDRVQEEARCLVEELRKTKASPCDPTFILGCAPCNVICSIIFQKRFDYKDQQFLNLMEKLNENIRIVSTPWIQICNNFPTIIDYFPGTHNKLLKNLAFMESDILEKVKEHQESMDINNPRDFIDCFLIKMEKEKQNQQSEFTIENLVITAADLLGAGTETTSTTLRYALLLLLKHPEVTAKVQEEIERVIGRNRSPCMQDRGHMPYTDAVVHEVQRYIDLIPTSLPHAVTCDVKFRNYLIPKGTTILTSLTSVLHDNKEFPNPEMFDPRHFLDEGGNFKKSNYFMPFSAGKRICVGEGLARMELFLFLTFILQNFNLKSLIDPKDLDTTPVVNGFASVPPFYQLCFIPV
Eukaryotic translation initiation factor 4E, sequence (P63073 whole entry): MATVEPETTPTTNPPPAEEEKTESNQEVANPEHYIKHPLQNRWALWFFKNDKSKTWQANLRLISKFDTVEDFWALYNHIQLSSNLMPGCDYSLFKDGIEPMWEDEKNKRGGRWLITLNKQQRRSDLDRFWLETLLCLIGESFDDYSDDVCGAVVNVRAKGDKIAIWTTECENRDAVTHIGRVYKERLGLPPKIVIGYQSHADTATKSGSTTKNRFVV
Large T antigen, sequence (P03070 whole entry): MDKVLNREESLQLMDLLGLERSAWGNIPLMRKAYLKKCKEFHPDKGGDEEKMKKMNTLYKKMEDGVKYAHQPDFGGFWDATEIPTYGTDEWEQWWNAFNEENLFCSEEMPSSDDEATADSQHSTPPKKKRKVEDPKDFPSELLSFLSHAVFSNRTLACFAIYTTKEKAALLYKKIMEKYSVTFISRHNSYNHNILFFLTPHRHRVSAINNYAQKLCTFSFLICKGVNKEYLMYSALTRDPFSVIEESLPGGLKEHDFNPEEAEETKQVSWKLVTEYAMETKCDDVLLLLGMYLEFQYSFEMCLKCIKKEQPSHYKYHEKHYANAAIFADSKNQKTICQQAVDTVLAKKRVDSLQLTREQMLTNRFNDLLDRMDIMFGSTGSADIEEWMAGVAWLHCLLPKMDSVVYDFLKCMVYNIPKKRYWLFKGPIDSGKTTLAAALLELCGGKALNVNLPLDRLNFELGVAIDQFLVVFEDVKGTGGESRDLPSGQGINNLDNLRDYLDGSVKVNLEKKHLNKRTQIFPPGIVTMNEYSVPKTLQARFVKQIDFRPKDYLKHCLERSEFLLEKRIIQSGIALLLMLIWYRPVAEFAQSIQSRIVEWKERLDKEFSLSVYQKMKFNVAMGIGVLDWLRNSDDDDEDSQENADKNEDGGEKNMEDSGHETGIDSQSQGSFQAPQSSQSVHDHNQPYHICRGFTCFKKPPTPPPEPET

Take `Cc1cc(N2CCN(Cc3cn(C)nc3-c3ccccc3F)CC2)cc(C)n1`: the EC50 in [1] was 14.9 µM (active); in [2], 10.1 µM (active); in [3], 16.3 µM (inconclusive); in experiment [4] it was 101 µM (inconclusive).

`CCOc1ccc(N2C(=O)/C(=C/c3ccc(C)o3)C(=O)NC2=S)cc1`: the EC50 in experiment [5] and in experiment [7] was > 300 µM (not active) in each case. Also, in [6], the IC50 was 49.9 µM (active).

As usually defined, the AC50 is the midpoint of the concentration-response curve, whichever way the signal moves. For the compound `Cn1nccc1C(=O)Nc1ccc(Cl)cc1`, the AC50 in [8] was 0.282 µM (inconclusive).

For `Cc1nn(-c2ccc(Cl)c(Cl)c2Cl)c(=O)c2ccccc12`, the IC50 in [9] was 22.8 µM (not active).

For `O=S1(=O)N=C(Nc2ccc(O)cc2)c2ccccc21`, the results for the IC50 in experiment [6] and in [10] were 5.09 µM (active) and 22.3 µM (active), respectively.

Regarding `CCN(CC)c1ccc(/C=N/N2CCOCC2)cc1`, the IC50 in experiment [6] is 5.98 µM (active); in [10] it was 40.8 µM (active).

As for `Cc1c(C(=O)N2CCCCC2)nn(-c2ccc(Cl)cc2)c(=O)c1C#N`, the IC50 in [11] was 50 µM (inactive).

For the compound `CCOC(=O)N1CCC(Nc2ccc(N3C(=O)C4CCCCC4C3=O)cc2[N+](=O)[O-])CC1` (configuration not stated), the IC50 in [9] was 7.24 µM (active).

With `Cc1cc(NC(=O)c2noc3c2CCc2ccccc2-3)n(-c2ccccc2)n1`, the IC50 in [11] is > 64 µM (inactive).

Turning to `CN(C)c1ccc(NC(N)=S)cc1`, the IC50 in experiment [6] was 7.29 µM (active).

Turning to `COc1cc(/C=N/NC(=O)C(=O)NCC2CCCO2)ccc1O` (configuration not stated), the IC50 in [6] is 11.7 µM (active); in experiment [10] it was 32.3 µM (active).

On to `CN1CCN(c2cc(N3CCCC3)c([N+](=O)[O-])cc2F)CC1`, for which the AC50 in experiment [8] was 14.1 µM (inconclusive); in experiment [12], 100 nM (inconclusive).

On to `CC(=O)[C@@H]1[C@H]2[C@H](C(=O)[C@H]3OC[C@@H]2O3)[C@H]2C=Cc3ccccc3N21`, for which the AC50 in experiment [13] is 25.1 µM (inconclusive).

In the case of `CN(C)c1ccc2nc3c(C(=O)O)cc(=O)c(O)c-3oc2c1`, the figures for the AC50 in experiment [8] and in experiment [14] were 3.16 µM (inconclusive) and 2.51 µM (inconclusive), respectively.

`CC(=O)NC1(c2ccccc2)CCN(C(=O)N2CCOCC2)CC1`: in [9], the IC50 is reported as 7.15 µM (not active).

Turning to `COC(=O)[C@@H]1C[C@@]2(O)[C@H](O)[C@H](O)[C@H](O)C[C@H]2N1Cc1cccnc1`, the AC50 in experiment [13] was 31.6 µM (inconclusive).

As for `CCCn1c(C)nc2c(NCc3ccccc3)nc(C)nc21`, the AC50 in experiment [13] is 15.8 µM (inconclusive).

Regarding `O=C(Oc1ccc(=O)n(-c2ccccc2)n1)c1cccc(Cl)c1`, the IC50 in experiment [11] was > 64 µM (inactive).

With `COc1ccccc1CNc1nc(-c2cc(C)n(C)c2C)cs1`, the IC50 in [11] was 50 µM (inactive).

For the compound `COC(=O)c1ccc(C23CC4(C2)[C@H](CN(CC2CCCCC2)[C@@H]4c2ccccc2)C3c2ccc(C(F)(F)F)cc2)cc1` (some centres not stated), the AC50 in experiment [13] was 15.8 µM (inconclusive).

For `c1cc2c3c(c1)ccc1cccc(c13)C2`, the AC50 in [13] is 25.1 µM (inconclusive).

Turning to `Cc1cccc(NC(=O)c2cc(S(=O)(=O)c3ccccc3)ccc2Cl)c1`, the IC50 is 3.47 µM (active) in [15] and 7.13 µM (not active) in experiment [9]. Also, in experiment [16], the EC50 is > 53 µM (inactive).

`Cc1ccc([N+](=O)[O-])cc1NC(=O)C[n+]1ccccc1`: the IC50 in experiment [9] is listed as > 50 µM (not active).

With `COc1cc2c(cc1OC)C1Cc3ccc(OC)c(OC)c3CN1CC2` (configuration not stated), the AC50 in experiment [13] is 31.6 µM (inconclusive).

Take `Cc1nn(Cc2ccc(Cl)cc2Cl)c(C)c1NC(=O)c1nn(C)cc1Cl`: the IC50 in [9] is 0.917 µM (not active).

In the case of `C[C@H](CO)N1C[C@H](C)[C@H](CN(C)S(=O)(=O)c2cccs2)Oc2ccc(NC(=O)Nc3cccc4ccccc34)cc2CC1=O`, the AC50 in experiment [17], in experiment [18] and in [19] was < 260 nM (active) each time.

For `CN1CCN(NC(=O)c2cccc(F)c2)CC1`, the AC50 was 39.8 µM (inconclusive) in [8], 355 nM (inconclusive) in [12] and 39.8 µM (inconclusive) in experiment [14].

`Cc1noc(C)c1-c1nc(Nc2ccncc2)c2ccccc2n1`: the values for the AC50 in experiment [8] and in experiment [14] were 12.6 µM (inconclusive) and 31.6 µM (inconclusive), respectively.

For the compound `COc1cccc(-c2ccc3ncnc(NCc4ccc(OC)cc4OC)c3c2)c1`, the AC50 in [8] is 20 µM (inconclusive); in [12], 501 nM (inconclusive).
